Laboratory results as given in patent publication US20080182882A1, “N-HYDROXYAMIDINOHETEROCYCLES AS MODULATORS OF INDOLEAMINE 2,3-DIOXYGENASE” (INCYTE CORPORATION, priority 2006, published 2008).

Assays:
[1] = molecular target: T1, Human indoleamine 2,3-dioxygenasae (IDO) (Homo sapiens, UniProt P14902); assay: Human indoleamine 2,3-dioxygenase (IDO) enzyme assay; type: biochemical; conditions: 95 nM IDO, 2 mM D-Trp, pH 6.5, room temperature
T1 construct: His tag (N); made in house; host or cells: E. coli
Description: Human indoleamine 2,3-dioxygenasae (IDO) with an N-terminal His tag was expressed in E. coli and purified to homogeneity. IDO catalyzes the oxidative cleavage of the pyrrole ring of the indole nucleus of tryptophan to yield N′-formylkynurenine. The assays were performed at room temperature as described in the literature using 95 nM IDO and 2 mM D-Trp in the presence of 20 mM ascorbate, 5 μM methylene blue and 0.2 mg/mL catalase in 50 mM potassium phosphate buffer (pH 6.5). The initial reaction rates were recorded by continuously following the absorbance increase at 321 nm due to the formation of N′-formlylkynurenine. See: Sono, M., Taniguchi, T., Watanabe, Y., and Hayaishi, O. (1980) J. Biol. Chem. 255, 1339-1345 Compound activity is provided in Table 2 below.

[2] = molecular target: T2, indoleamine 2,3-dioxygenase (IDO) in HeLa cells (Homo sapiens, UniProt P14902); assay: HeLa cell-based indoleamine 2,3-dioxygenase (IDO)/kynurenine assay; conditions: IFN-γ 50 ng/mL, 48 hours incubation, kynurenine at 480 nm
T2 construct: host or cells: HeLa cells, IFN-γ induced
Description: HeLa cells (#CCL-2) can be obtained from the American Type Tissue Culture Collection (ATCC, Manassas, Va.) and routinely maintained in minimum essential medium (eagle) with 2 mM L-glutamine and Earle's BSS adjusted to contain 1.5 g/L sodium bicarbonate, 0.1 mM non-essential amino acids, 1 mM sodium pyruvate and 10% fetal bovine serum (all from Invitrogen). Cells are kept at 37° C. in a humidified incubator supplied with 5% CO2. The assay is performed as follows: HeLa cells are seeded in a 96 well culture plate at a density of 5×10^3 per well and grown overnight. On the next day, IFN-γ (50 ng/mL final concentration) and serial dilutions of compounds (in total volume of 200 μL culture medium) are added into cells. After 48 hours of incubation, 140 μL of the supernatant per well is transferred to a new 96 well plate. 10 μL of 6.1 N trichloroacetic acid (#T0699, Sigma) is mixed into each well and incubated at 50° C. for 30 min to hydrolyze N-formylkynurenine produced by indoleamine 2,3-dioxygenase to kynurenine. […] The yellow color derived from Kynurenine is measured at 480 nm using a SPECTRAmax 250 microplate reader (Molecular Devices). […] The percent inhibition at individual concentrations is determined and the average values of duplicates are obtained. The data is analyzed by using nonlinear regression to generate IC50 values (Prism Graphpad). […]

[3] = test system: LLC tumors; conditions: LLC tumors in C57B1/6 mice, versus placebo (Friberg, M., et al); cited from earlier work
[4] = test system: P815 tumor; conditions: pre-immunized immune-competent mice, IDO-expressing tumors (Uyttenhove, C., et al); cited from earlier work

T1 sequence (P14902 whole entry): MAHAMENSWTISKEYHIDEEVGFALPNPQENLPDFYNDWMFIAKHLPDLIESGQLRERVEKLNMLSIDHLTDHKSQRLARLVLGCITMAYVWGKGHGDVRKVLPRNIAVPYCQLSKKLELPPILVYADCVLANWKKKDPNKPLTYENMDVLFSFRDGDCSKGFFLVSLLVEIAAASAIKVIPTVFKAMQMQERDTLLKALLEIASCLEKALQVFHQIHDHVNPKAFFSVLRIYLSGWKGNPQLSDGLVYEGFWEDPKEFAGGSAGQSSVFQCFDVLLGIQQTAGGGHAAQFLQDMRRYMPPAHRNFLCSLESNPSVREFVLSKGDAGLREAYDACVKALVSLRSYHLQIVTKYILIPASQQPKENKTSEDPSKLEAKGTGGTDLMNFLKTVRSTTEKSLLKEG
T2 sequence (P14902 whole entry): as above

| Compound | IC50 [1] [nM] | IC50 [2] [nM] | formation of tumors [3] | growth of tumors [4] |
| --- | --- | --- | --- | --- |
| Cc1ccc(Cl)cc1CNC(=NO)c1nonc1CO [Example 1, N-(5-chloro-2-methylbenzyl)-N′-hydroxy-4-(hydroxymethyl)-1,2,5-oxadiazole-3-carboximidamide] | < 1000 | < 500 |  |  |
| Cc1ccc(C)c(CNC(=NO)c2nonc2CO)c1 [Example 4] | < 5000 |  |  |  |
| OCc1nonc1C(=NO)NCc1cc(Cl)ccc1Cl [Example 2] | < 5000 |  |  |  |
| OCc1nonc1C(=NO)NCc1cc(Br)ccc1F [Example 3] | < 1000 | < 500 |  |  |
| Cn1cc(C[C@H](N)C(=O)O)c2ccccc21 [Example 1-MT, 1-methyl-tryptophan] |  |  | markedly delayed | inhibited |
